One substance from US8338380B2, “Use of the peptide RFMWMR as a therapeutic agent” (priority 2007, dated 2012) can be followed below.

In this assay the test system is drug-resistant Mycobacterium tuberculosis. Conditions: 5 micrograms per ml.

In the case of “Ac-RFMWMR-NH2 [Ac-Arg-Phe-Met-Trp-Met-Arg-NH2]”, the % inhibition (as a rule, the relative decrease from the control value, in per cent) is recorded as 100.0%.
